This is an account of results in patent US5254566A, “Decahydroquinoline compounds” (Roussel Uclaf, priority 1991, dated 1993).

Counter-ions that a name gives are not always drawn.

For assay [1], the system named is Plasmodium falciparum FZ strain resistant to chloroquine. Nature of the assay: Anti-paludal activity in vitro: inhibition of proliferation in continuous culture, FZ strain. Particulars: R3 type resistance, parasitemia relative to controls, incubation 48 hours, RPS 10 medium, 5% CO2, read-out: ED50 (FZ strain resistant to chloroquine). The class given is cell-based. The procedure: (§1) 2) Test for determining the anti-paludal activity in vitro
(§2) The culturing of Plasmodium falciparum "in vitro" was carried out in cupulas on polystyrene plates used for tissue culture. It was carried out at 37° C. in a CO2 oven by the technique of TRAGER et al (1976-1978) on a modified RPMI 1640 medium (AZOULAY et al 1983) buffered with a mixture of HEPES buffer (40 m.moles/l), glucose (4 g/l) and 10 percent human serum. The anti-malarial activity "in vitro" of the different products tested was studied on two different strains of Plasmodium falciparum, namely an FCC2 strain sensitive to chloroquine and an FZ strain resistant to chloroquine (R3 type resistance). […]
(§3) 0.7 ml of the globular suspension was deposited in each cupula and each concentration of chosen product was tested on 3 cupulas. […] After an incubation time of 48 hours without renewing the medium in a steam chest with a CO2 content of 5%, the parasitemia content of each cupula was evaluated.
(§4) To do this, the canisters were removed from the steam chest and were left for 10 minutes at rest under a hood with laminar flux. […] On these crush preparations, fixed and colored, the different forms of the parasite were counted for 2000 to 3000 red blood corpuscles per plate. The results were expressed as the percentage of proliferation relative to the controls. […]

The subject of assay [2] is Plasmodium falciparum FCC2 strain sensitive to chloroquine. Nature of the assay: Anti-paludal activity in vitro: inhibition of proliferation in continuous culture, FCC2 strain. The class given is cell-based. Particulars: parasitemia relative to controls, incubation 48 hours, RPS 10 medium, 5% CO2, read-out: ED50 (FCC2 strain sensitive to chloroquine). The procedure: as §1, §2, §3, §4

As to `Clc1ccc2c(N3CCC[C@@H]4CCC[C@@H](N5CCCC5)[C@@H]43)ccnc2c1` (relative stereo) [Example 2, (4a α, 8α, 8aα) (±) 1-(7-chloro-4-quinolinyl)-decahydro-8-(1-pyrrolidinyl)-quinoline dihydrochloride], the figures for the IC50 in assay [1] and in assay [2] were 0.34 µg/mL and 0.35 µg/mL, respectively.
